Source: US20250136614A1, “2,7-SUBSTITUTED PYRROLO[2,1-F][1,2,4]TRIAZINE COMPOUND HAVING PROTEIN KINASE INHIBITORY ACTIVITY” (Magicbullettherapeutics Co., Ltd., priority 2021, published 2025)
Residue numbers refer to the chain shown, from its start.

Tests used:
Assay in all cases: Ba/F3 cell growth inhibition (CellTiter-Glo, 72 hours)
Format in all cases: cell-based
[1] = molecular target: T1, Ba/F3 FLT3 (ITD/D835YF691L) (Homo sapiens, UniProt P36888, F691L/D835Y, cells depend on it, form not given); details: read-out: Ba/F3 GI50s (μM) FLT3 (ITD/D835YF691L)
T1 sequence (P36888 1-993 F691L/D835Y): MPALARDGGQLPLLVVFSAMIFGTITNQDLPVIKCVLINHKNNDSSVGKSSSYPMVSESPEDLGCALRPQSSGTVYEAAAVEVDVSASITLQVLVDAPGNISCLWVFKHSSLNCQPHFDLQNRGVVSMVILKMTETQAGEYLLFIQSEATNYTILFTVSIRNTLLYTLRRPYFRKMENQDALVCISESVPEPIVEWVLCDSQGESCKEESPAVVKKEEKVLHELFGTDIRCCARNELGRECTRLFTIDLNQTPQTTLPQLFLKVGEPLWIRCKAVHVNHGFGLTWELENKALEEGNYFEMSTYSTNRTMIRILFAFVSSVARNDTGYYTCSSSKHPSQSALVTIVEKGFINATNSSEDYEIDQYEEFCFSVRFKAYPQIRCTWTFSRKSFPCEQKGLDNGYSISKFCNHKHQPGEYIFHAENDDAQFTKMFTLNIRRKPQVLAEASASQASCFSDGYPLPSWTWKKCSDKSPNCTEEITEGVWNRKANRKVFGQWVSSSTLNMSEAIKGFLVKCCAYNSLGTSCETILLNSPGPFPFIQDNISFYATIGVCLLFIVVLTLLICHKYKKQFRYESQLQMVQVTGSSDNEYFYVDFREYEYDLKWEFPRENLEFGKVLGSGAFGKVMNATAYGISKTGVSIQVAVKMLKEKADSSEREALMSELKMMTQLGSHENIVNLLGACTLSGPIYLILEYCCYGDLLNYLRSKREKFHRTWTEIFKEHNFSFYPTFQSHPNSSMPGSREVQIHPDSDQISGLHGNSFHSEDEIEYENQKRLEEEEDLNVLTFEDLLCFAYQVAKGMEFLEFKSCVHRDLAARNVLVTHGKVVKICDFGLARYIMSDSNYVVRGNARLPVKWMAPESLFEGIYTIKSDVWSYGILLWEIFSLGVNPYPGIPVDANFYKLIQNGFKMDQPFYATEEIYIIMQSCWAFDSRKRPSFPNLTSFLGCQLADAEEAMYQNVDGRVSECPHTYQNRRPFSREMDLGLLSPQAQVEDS
Procedure: (§1) Seeding 3000 cells per well in a 96-well plate. After cell stabilization, treat the cells with compounds diluted in […] at a ⅓ serial dilution and culture for 72 hours. Following treatment with CellTiter-Glo, luminescence is produced only in the presence of ATP, as luciferase degrades luciferin. Luminescence values were measured using Envision (PerkinElmer). Based on the measured luminescence values, the concentration of compounds causing cell death was calculated to determine the GI50 value.
(§2) The activity values were categorized into three levels. • A: IC50<1 μM • B: 1 μM≤IC50<10 μM, • C: IC50≥10 μM

Ba/F3 FLT3 (ITD) = molecular target: T2, Ba/F3 FLT3 (ITD) (Homo sapiens, UniProt P36888, cells depend on it, form not given); details: read-out: Ba/F3 GI50s (μM) FLT3 (ITD)
T2 sequence (P36888 1-993): T1 sequence (P36888 1-993 F691L/D835Y) with L691F, Y835D
Procedure: as §1, §2

Ba/F3 parental = details: Mus musculus, BaF3, Ba/F3 parental cells, read-out: Ba/F3 GI50s (μM) parental
Procedure: as §1, §2

GI50 [1]	GI50 (Ba/F3 FLT3 (ITD))	SMILES	IC50 (Ba/F3 parental)
≥ 10 µM	1 to 10 µM	Cc1ncsc1-c1ccc(CNC(=O)[C@@H]2C[C@@H](O)CN2C(=O)[C@@H](NC(=O)CCOCCOCCN2CCN(c3ccc(Nc4ncc5ccc(-c6cccc(NS(C)(=O)=O)c6)n5n4)cc3)CC2)C(C)(C)C)cc1 [Example 84, (2S,4R)-1-((S)-3,3-dimethyl-2-(3-(2-(2-(4-(4-((7-(3-(methanesulfonamido)phenyl)pyrrolo[2,1-f][1,2,4]triazin-2-yl)amino)phenyl)piperazin-1-yl)ethoxy)ethoxy)propanamido)butanoyl)-4-hydroxy-N-(4-(4-methylthiazol-5-yl)benzyl)pyrrolidin-2-carboxamide]	1 to 10 µM
< 1 µM	< 1 µM	O=C1COCCOc2ccc(cc2)-c2ccc3cnc(nn23)Nc2cnn(c2)CCCN1 [Example 35, (2^1Z,4^4E)-4^1H-11,14-dioxa-3,8-diaza-2(7,2)-pyrrolo[2,1-f1][1,2,4]triazina-4(4,1)-pyrazola-1(1,4)-benzenacyclotetradecaphan-9-one]	1 to 10 µM
1 to 10 µM	< 1 µM	O=C1CCCCCCOc2ccc(cc2)-c2ccc3cnc(nn23)Nc2cnn(c2)CCCN1 [Example 37, (2^1Z,4^4E)-4^1H-16-oxa-3,8-diaza-2(7,2)-pyrrolo[2,1-f1][1,2,4]triazina-4(4,1)-pyrazola-1(1,4)-benzenacyclohexadecaphan-9-one]	≥ 10 µM
1 to 10 µM	< 1 µM	O=C1CCCCOc2ccc(cc2)-c2ccc3cnc(nn23)Nc2cnn(c2)C2CCN1CC2 [Example 25, (2^1Z,4^4E)-4^1H-11-oxa-3-aza-2(7,2)-pyrrolo[2,1-f][1,2,4]triazina-5(4,1)-piperidina-4(4,1)-pyrazola-1(1,4)-benzenacycloundecaphan-6-one]	≥ 10 µM
1 to 10 µM	< 1 µM	O=C1CCCCOc2ccc(cc2)-c2ccc3cnc(nn23)Nc2ccc(cc2)OCCCN1 [Example 38, (Z)-5,15-dioxa-3,9-diaza-2(7,2)-pyrrolo[2,1-f][1,2,4]triazina-1,4(1,4)-dibenzenacyclopentadecaphan-10-one]	≥ 10 µM
≥ 10 µM	1 to 10 µM	O=C1CCCCCCOc2ccc(cc2)-c2ccc3cnc(nn23)Nc2ccc(cc2)N2CCN1CC2 [Example 24, (Z)-13-oxa-3-aza-2(7,2)-pyrrolo[2,1-f][1,2,4]triazina-5(1,4)-piperazina-1,4(1,4)-dibenzenacyclotridecaphan-6-one]	1 to 10 µM
1 to 10 µM	< 1 µM	O=C1COCCOc2ccc(cc2)-c2ccc3cnc(nn23)Nc2ccc(cc2)OCCCN1 [Example 28, (Z)-5,12,15-trioxa-3,9-diaza-2(7,2)-pyrrolo[2,1-f][1,2,4]triazina-1,4(1,4)-dibenzenacyclopentadecaphan-10-one]	< 1 µM
